Here are results for twelve compounds from US6348571B1, “Corticotropin release inhibiting factor and methods of using same” (Northwestern University, priority 1994, dated 2002).

The subject of one data set is AtT-20 cells. Put plainly: Bioassay of synthetic prepro-TRH peptides: ACTH secretion in AtT-20 cells. The format is cell-based, mouse. Conditions: peptide 10^-10-10^-6 M, 4 hours, 50 nM CRF. The procedure: (§1) The bioactivity of various synthetic peptides corresponding to the various prepro-TRH intervening sequences was assessed in AtT-20 or primary anterior pituitary cells. All experiments were conducted in triplicate. To perform this assay, AtT-20 cells were plated at a density of 10^5 cells/well in 24 well plates. After 24 hours, the medium was removed and replaced with steroid-free medium containing the test peptide at a concentration of 10^−10-10^−6 M. When primary pituitary cultures were used, freshly dispersed anterior pituitary cells (1-2×10^5 cells/well) were plated in 24 well plates for 48 hours using steroid free media. Again, after 24 hours, the medium was removed and replaced with steroid-free medium containing the test peptide at a concentration of 10^−10-10^−6 M. The supernatants from the cells were harvested after 4 hours of incubation under unstimulated or CRF-stimulated conditions. AtT-20 cells were stimulated with 50 nM CRF and primary pituitary cells were stimulated with 10 nM CRF. The supernatants were centrifuged and stored at −80° C.
ACTH-like immunoreactivity was measured using an antiserum which reacts with amino acids 1-24 and 1-39 on ACTH on an equimolar basis. The assay is described in Redei et al. (1988, Endocrinology, 123:2736-2743). For these studies, ^125I-ACTH 1-39 was used as a tracer. This assay is capable of detecting as little as 3 pg ACTH/tube. Intraassay and interassay coefficients of variation were 6.4% and 11.6% respectively.
Peptides prepro-TRH 115-151, 160-169 and 178-199 were obtained from Penninsula Lab Inc. (Belmont, Calif.); peptides prepro-TRH 53-74, 83-106 and TRH precursor peptide (Lys-Arg-Gln-His-Pro-Gly-Lys-Arg) were obtained from American Peptide Co. Inc. (Sunnyvale, CA); and, peptides prepro-TRH 25-50, 208-220 and 230-255 were obtained from Quality Control QCB, Hopkington, Mass.

Data set [1] has as its system primary anterior pituitary cells. The data set is described as follows: Bioassay of synthetic prepro-TRH peptides: ACTH secretion in primary anterior pituitary cells. The format is cell-based. The following applies: primary pituitary cell cultures, 10 nM CRF. The procedure: as §1
ACTH-like immunoreactivity was measured using an antiserum which reacts with amino acids 1-24 and 1-39 on ACTH on an equimolar basis. The assay is described in Redei et al. (1988, Endocrinology, 123:2736-2743). For these studies, ^125I-ACTH 1-39 was used as a tracer. This assay is capable of detecting as little as 3 pg ACTH/tube. […]

For data set [2], the system named is SCW-induced inflammatory response. The data set is described as follows: Thyroid status and SCW-induced inflammatory response in female rats. The format is in vivo, rat. An excerpt: RA is an autoimmune disease characterized by chronic degradation of the joints resulting from inflammation of synovial membranes. SCW-induced inflammation in the autoimmune prone female Lewis rat is an accepted animal model for the study of RA. […] It is likely that increased thyroid activity decreases the susceptibility to inflammatory immune disease by increasing glucocorticoid levels. The discovery of CRIF encoded within the same precursor as TRH establishes a direct link between the HPA and thyroid axes. Thyroid hormones may play a fundamental role in regulating the HPA axis by modulation of levels of prepro-TRH mRNA.
To determine the role played by thyroid hormones and concomitant changes in the HPA axis in the development of SCW-induced inflammatory response, expression of genes which reflect the status of thyroid function (TRH), pituitary-adrenal activity (POMC) and inflammation (IL-1β and MIP-1α, a macrophage specific inflammatory protein) was measured. Adult female rats were fed a regular diet (control), or a regular diet plus 0.012% T4 (hyperthyroid) or 0.05% 6-propyl-thiouracil (PTU) supplied in the in drinking water (hypothyroid), for seven weeks. A preparation of SCW (20 μg/g of body weight) was administered intraperitoneally to the rats three days before decapitation. Anterior pituitary POMC, hypothalamic TRH and peritoneal macrophage IL-1β and MIP-1α mRNA levels were assessed by Northern blot hybridization analysis using specific cDNA probes. The levels of mRNA were normalized to the housekeeping gene, GAPD, and were quantified by image analysis densitometry. Plasma levels of TSH and CORT were determined by RIA.

Another data set concerns At-20 cells. Put plainly: Inhibition of PMA- or forskolin-stimulated ACTH release in At-20 cells by small CRIF peptides. Conditions: PMA 100 nM, FIG. 18. The format is cell-based. The procedure: FIG. 19 is a graph and amino acid sequences [SEQ ID NOS:1, 6 and 5, resepctively], where the graph depicts the fact that forskolin-stimulated ACTH secretion is inhibited by peptides derived from prepro-TRH 178-199. The biological activity of small CRIF peptides was tested in vitro, using inhibition of ACTH release in At-20 cells as the bioassay. These peptides were tested in 2-7 independent experiments, where treatments were added in triplicate. Forskolin was used at a concentration of 20 μM, and PMA was used at a concentration of 100 nM.
CRIF peptides having either four contiguous amnino acids or nine contiguous amino acids positioned between the fourth and fifth TRH sequence in a rprepro-TRH polypeptide were prepared. These peptides are referred to herein as rprepro-TRH 196-199 (SEQ ID NO:5, having four contiguous amino acids) and rprepro-TRH 191-199 (SEQ ID NO:6, having nine contiguous amino acids). The CRIF activity of each of these peptides was assessed in vitro in a bioassay, wherein inhibition of ACTH release in At-20 cells was used as a measure of CRIF activity. Full length CRIF (rprepro-TRH 178-199) was used as a positive control. […] Thus, CRIF peptides having less than twenty two contiguous amino acids have CRIF activity.

In the next data set the test system is F344XBN rats. Put plainly: Forced swim test after sub-acute icv administration. The format is in vivo. The procedure:
In FIG. 20 there is shown data which establish that prepro-TRH 191-199 decreased immobility in the forced swim test when the peptide was administered to a rat icv. In this experiment, adult male Sprague-Dawley or F1 Brown Norway/Fisher344 rats were used in these experiments. Rats were implanted with cannulae into the lateral ventricle as described previously (McGivern, 1997, J. Neurosci. 17:4886-4894). For the stereotaxic surgery, animals were anesthetized (ketamine, 50 mg/kg/xylazine, 8 mg/kg) and positioned in a stereotaxic head fame. At the end of behavioral testing, placements will be verified by anesthetizing the animal with pentobarbital (45 mg/kg) and injecting 1 μl tryphan blue staining solution through the cannulae just prior to decapitation. Only data from animals with correct placement were included in the analysis.
At least 7 days after the stereotaxic surgery, animals were subjected to an initial 15 minute swim pretest, followed by a 5-minute swim test 24 hours later. Rats received two injections of sterile vehicle or prepro-TRH 178-199 (1.5, 3.0, 6.0 or 12.0 μg/kg; 0.6, 1.2., 2.3 and 4.6 nmol/kg) in […] between the pretest and the test. 15 minutes after the initial (pre)-swim and 5 minutes before the test swim. In the case of prepro-TRH 191-199 administration, the C-terminal peptide was administered in this sub-acute fashion at 2.2 μg/kg (2.3 nmol/kg) dose, which is equivalent to 6 μg/kg prepro-TRH 178-199. Water was chosen instead of saline or artificial CSF for solubility reasons: the peptide dissolved much better in sterile, pyrogen-free water and animals tolerated this vehicle very well even after 14 days of daily administration. F344XBN rats were used. Prepro-TRH 191-199 had effects very similar to those of the full-length peptide.

A further data set has as its system rats. Put plainly: Side effects in rats treated in vivo with CRIF.

Ends that are not written are not given here.

With “prepro-TRH 25-50: intervening peptide of rat prepro-TRH, amino acids 25-50 (LPEAAQEEGAVTPDLPGLENVQVRPE; UniProt P01150 25-50, looked up, fragment)”, in the data set with AtT-20 cells, the “bioactivity: basal and CRF-stimulated ACTH secretion” value is given as “only the peptide comprising amino acids 178-199 exhibited bioactivity”.

For “prepro-TRH 83-106: intervening peptide of rat prepro-TRH, amino acids 83-106 (EEEEKDIEAEERGDLGEGGAWRLH; UniProt P01150 83-106, looked up, fragment)”, the “bioactivity: basal and CRF-stimulated ACTH secretion” value with AtT-20 cells is reported as “only the peptide comprising amino acids 178-199 exhibited bioactivity”.

Take “prepro-TRH 160-169: intervening peptide of rat prepro-TRH, amino acids 160-169 (SFPWMESDVT; UniProt P01150 160-169, looked up, fragment)”: the “bioactivity: basal and CRF-stimulated ACTH secretion” value with AtT-20 cells is reported as “only the peptide comprising amino acids 178-199 exhibited bioactivity”.

On to “prepro-TRH 230-255: intervening peptide of rat prepro-TRH, amino acids 230-255 (DLSRGQETLVKQSPQVEPWDKEPLEE; UniProt P01150 230-255, looked up, fragment)”, for which the “bioactivity: basal and CRF-stimulated ACTH secretion” value with AtT-20 cells is listed as “only the peptide comprising amino acids 178-199 exhibited bioactivity”. Further, the “CRIF activity (ACTH secretion)” value in data set [1] is reported as “only peptide 178-199 exhibited CRIF activity”.

Take `CCCc1cc(=O)[nH]c(=S)[nH]1` [PTU, 6-propyl-thiouracil]: in data set [2] (SCW 20 μg/g ip, SCW-administered control rats 17-fold), the “increase in macrophage MIP-1α mRNA levels on SCW administration” value came out at 22 fold. In data set [2] (altered thyroid status, FIG. 12E), the “plasma CORT levels” value was “significant decrease”. In data set [2] (hypothyroid group, 0.05% in drinking water, seven weeks, p<0.01), the “increase of hypothalamic TRH mRNA levels” value came to 52%.

In the case of “EGEGVLMPE [prepro-TRH 191-199, CRIF peptide having nine contiguous amino acids]”, the “PMA-stimulated ACTH secretion” value with At-20 cells is listed as “capable of inhibiting ACTH secretion at levels which are comparable to those achieved using full length CRIF”. Moreover, in the data set on F344XBN rats (icv sub-acute, equimolar 2.3 nmol/kg (2.2 μg/kg 191-199; 6 μg/kg 178-199), p<0.001), the “floating in the forced swim test” value is listed as “significantly decreased”. For the same compound, in the data set with F344XBN rats (icv sub-acute, equimolar 2.3 nmol/kg (2.2 μg/kg 191-199; 6 μg/kg 178-199), p<0.01), the “climbing in the forced swim test” value is “increased”. Moreover, the “immobility in the forced swim test” value in the data set with F344XBN rats (icv, rat) is listed as “decreased”.

For the compound “prepro-TRH 53-74: intervening peptide of rat prepro-TRH, amino acids 53-74 (FLWKDLQRVRGDLGAALDSWIT; UniProt P01150 53-74, looked up, fragment)”, the “bioactivity: basal and CRF-stimulated ACTH secretion” value with AtT-20 cells is given as “only the peptide comprising amino acids 178-199 exhibited bioactivity”.

With “Leu-Met-Pro-Glu (LMPE; printed: Leu-Met-Pro-Glu) [prepro-TRH 196-199, CRIF peptide having four contiguous amino acids]”, the “PMA-stimulated ACTH secretion” value with At-20 cells is listed as “capable of inhibiting ACTH secretion at levels which are comparable to those achieved using full length CRIF”.

For KRQHPGKR [TRH precursor peptide], in data set [1], the “CRIF activity (ACTH secretion)” value is on record as “only peptide 178-199 exhibited CRIF activity”.

For the compound “prepro-TRH 115-151: intervening peptide of rat prepro-TRH, amino acids 115-151 (ANQDKYSWADEEDSDWMPRSWLPDFFLDSWFSDVPQV; UniProt P01150 115-151, looked up, fragment)”, the “bioactivity: basal and CRF-stimulated ACTH secretion” value with AtT-20 cells is listed as “only the peptide comprising amino acids 178-199 exhibited bioactivity”.

In the case of “prepro-TRH 208-220: intervening peptide of rat prepro-TRH, amino acids 208-220 (ALGHPCGPQGTCG; UniProt P01150 208-220, looked up, fragment)”, in the data set with AtT-20 cells, the “bioactivity: basal and CRF-stimulated ACTH secretion” value is on record as “only the peptide comprising amino acids 178-199 exhibited bioactivity”.

With “FIDPELQRSWEEKEGEGVLMPE [prepro-TRH 178-199]”, the “side effects associated with administration” value in the data set with rats is given as “no discernible deleterious side effects”.
